What is called IC50 is the concentration that gives 50% inhibition.

The structures appear in SMILES notation.

For the assay, the species on record is Oryctolagus cuniculus. In words: Evaluation of vasodilatory activity in Isolated rabbit aorta strips. The assay is classed as functional.

As to `CC/C(=C\C(=N/O)C(N)=O)C(C)[N+](=O)[O-]` (configuration not stated), the IC50 stood at 0.15 µM.
In the case of `CC/C(=C\C(=O)C(N)=O)C(C)[N+](=O)[O-]` (configuration not stated) it was 7 µM.
